Active and inactive are the calls of the source.
Assays:
[1] = control 3'UTR Renilla luciferase suppression, dose response, counter-screen for Shn3 inhibitor project, cell-based, Clone20-Shn3RL, cherry-picked (AID 624133); format: functional
[2] = insulin promoter down-regulators in MIN6 cells, imaging, high-content screening, mouse beta cells (AID 1628); format: functional
[3] = cytotoxicity in MIN6 insulinoma cells, dose response, cytotoxicity control, cell-based, mouse insulinoma (AID 2122); format: functional;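 note: confirmatory high-throughput counterscreen run to flag cytotoxic compounds; mouse MIN-6 beta cells carrying an insulin promoter eGFP reporter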
[4] = Shn3 3'UTR reporter inhibitors, dose response, cell-based, Clone20 osteoblasts, firefly luciferase, cherry-picked (AID 624132); format: functional;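 note: firefly luciferase luminescence from reporter carrying the Shn3 3'UTR in osteoblasts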
[5] = HepG2 cell cytotoxicity, dose response, cytotoxicity control for Shn3 inhibitor project, CellTiter-Glo, cherry-picked (AID 624134); format: functional, cell-based
[6] = target: T1, Adenosylmethionine-8-amino-7-oxononanoate aminotransferase (Mycobacterium tuberculosis, UniProt P9WQ81); assay: Mycobacterium tuberculosis BioA enzyme inhibitor Measured in Biochemical System Using Plate Reader - 2163-02_Inhibitor_Dose_CherryPick_Activity.; format: functional, Mycobacterium tuberculosis UT205
T1 sequence (P9WQ81 whole entry): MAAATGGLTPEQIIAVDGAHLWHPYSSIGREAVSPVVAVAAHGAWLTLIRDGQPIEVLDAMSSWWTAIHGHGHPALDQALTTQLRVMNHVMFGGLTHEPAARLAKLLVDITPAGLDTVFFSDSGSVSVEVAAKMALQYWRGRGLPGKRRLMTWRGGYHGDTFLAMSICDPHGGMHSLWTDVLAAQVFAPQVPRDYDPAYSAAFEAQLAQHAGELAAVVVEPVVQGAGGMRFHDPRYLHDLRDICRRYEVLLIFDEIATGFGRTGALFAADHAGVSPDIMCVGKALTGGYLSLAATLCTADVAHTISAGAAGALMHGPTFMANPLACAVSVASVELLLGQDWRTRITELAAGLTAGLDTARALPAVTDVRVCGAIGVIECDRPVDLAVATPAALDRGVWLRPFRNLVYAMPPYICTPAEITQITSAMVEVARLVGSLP

[7] = target: T2, Cytochrome P450 3A4 (Homo sapiens, UniProt P08684);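 note: CYP3A4 tested as one member of a cytochrome P450 panel screen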
[8] = target: Cytochrome P450 2C19 (Homo sapiens, UniProt P33261); assay: Cytochrome panel assay with activity outcomes. Panel member name: p450-cyp2c19 Compounds with AC50 equal or less than 10 uM are considered active; format: functional; conditions: read-out: AC50
[9] = target: Cytochrome P450 2C9 (Homo sapiens, UniProt P11712)
[10] = target: T3, Cytochrome P450 1A2 (Homo sapiens, UniProt P05177);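 note: PubChem cytochrome P450 panel assay, CYP1A2 panel member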
T3 sequence (P05177 whole entry): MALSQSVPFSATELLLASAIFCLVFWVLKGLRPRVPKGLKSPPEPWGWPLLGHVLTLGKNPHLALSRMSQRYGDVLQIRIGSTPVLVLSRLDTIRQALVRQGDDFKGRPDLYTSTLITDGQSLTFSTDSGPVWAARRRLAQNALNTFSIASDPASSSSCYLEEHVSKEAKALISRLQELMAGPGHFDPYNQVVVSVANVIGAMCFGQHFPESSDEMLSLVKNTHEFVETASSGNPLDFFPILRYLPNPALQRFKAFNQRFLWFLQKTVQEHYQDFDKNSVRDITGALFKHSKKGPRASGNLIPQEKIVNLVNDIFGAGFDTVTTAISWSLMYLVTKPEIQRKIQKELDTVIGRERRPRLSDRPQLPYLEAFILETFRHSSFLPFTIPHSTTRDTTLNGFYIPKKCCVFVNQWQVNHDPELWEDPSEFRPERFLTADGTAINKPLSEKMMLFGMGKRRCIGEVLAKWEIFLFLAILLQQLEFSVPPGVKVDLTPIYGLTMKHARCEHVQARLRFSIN

[11] = THP-1 cell cytotoxicity, dose response, cytotoxicity control for non-replicating M. tuberculosis project (AID 489025); format: functional
[12] = Vero E6 cell cytotoxicity, dose response, cytotoxicity control for non-replicating M. tuberculosis project, secondary assay (AID 492998); format: functional, VeroE6; conditions: Vero C1008
[13] = cells; format: functional
[14] = target: Cytochrome P450 2D6 (Homo sapiens, UniProt P10635);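 note: CYP2D6 member of a cytochrome P450 panel assay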
[15] = tested on: SN12K1; assay: cells; format: functional; conditions: Homo sapiens
[16] = tested on: P388/ADR; assay: cells; format: functional; conditions: Mus musculus
[17] = tested on: P388; assay: cells; format: functional; conditions: Mus musculus
[18] = target: T2, Cytochrome P450 3A4; remark: listed apart in the source
[19] = cells; format: functional, cell-based
[20] = cells; format: functional, cell-based; remark: listed apart in the source
[21] = NIH-3T3 fibroblast cytotoxicity, dose response, cytotoxicity control, cell-based, fluorescence, Alamar Blue, secondary assay (AID 2327); format: functional;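 note: NIH-3T3 mouse fibroblasts cultured with fluconazole at 8 µg/mL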
[22] = C. albicans growth with fluconazole, confirmation, fluorescence, retest (AID 2467); format: functional, cell-based
[23] = cytotoxicity toward NIH3T3 fibroblasts, dose response, counter-screen, cell-based, ATP luminescence, mouse fibroblasts (AID 2010); format: functional;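 note: cells exposed to compound for about 90 hours before reading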
[24] = inhibitors of intracellular T. cruzi replication, confirmation, NIH3T3 host cells, beta-gal luminescence (AID 2044); format: functional, cell-based;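 note: intracellular parasites grown in NIH/3T3 mouse fibroblasts as host cells; luminescent beta-galactosidase reporter signal from transgenic T. cruzi replicating inside host cells; inhibitors lower the luminescence signal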
[25] = target: T4, Endoribonuclease toxin MazF (Escherichia coli K-12, UniProt P0AE70); assay: MazF toxin RNase activators, dose response, biochemical, fluorescence, single-stranded RNA substrate, uHTS hits (AID 588481); format: functional
T4 sequence (P0AE70 whole entry): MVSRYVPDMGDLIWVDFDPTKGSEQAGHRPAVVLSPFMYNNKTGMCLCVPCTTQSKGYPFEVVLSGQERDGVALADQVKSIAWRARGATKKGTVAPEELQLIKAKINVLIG

[26] = target: T4, Endoribonuclease toxin MazF; assay: fluorescent RNA oligo signal without MazF, dose response, counter-screen for MazEF activator project, biochemical, fluorescence, single-stranded RNase substrate (AID 588502); format: functional

Cytochrome P450 2C9, sequence (P11712 whole entry): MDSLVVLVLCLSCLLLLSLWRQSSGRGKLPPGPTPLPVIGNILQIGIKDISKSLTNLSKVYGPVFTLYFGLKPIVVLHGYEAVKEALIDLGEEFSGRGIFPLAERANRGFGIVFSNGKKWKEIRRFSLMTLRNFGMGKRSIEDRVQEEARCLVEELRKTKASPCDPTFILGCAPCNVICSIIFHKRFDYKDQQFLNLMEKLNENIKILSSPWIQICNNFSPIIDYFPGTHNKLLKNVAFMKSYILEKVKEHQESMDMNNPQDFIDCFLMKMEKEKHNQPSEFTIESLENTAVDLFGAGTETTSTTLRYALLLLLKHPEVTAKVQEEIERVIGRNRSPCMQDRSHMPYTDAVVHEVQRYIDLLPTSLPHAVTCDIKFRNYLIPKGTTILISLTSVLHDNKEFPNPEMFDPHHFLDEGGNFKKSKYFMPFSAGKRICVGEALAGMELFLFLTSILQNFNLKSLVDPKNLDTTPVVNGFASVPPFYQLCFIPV
T2 sequence (P08684 whole entry): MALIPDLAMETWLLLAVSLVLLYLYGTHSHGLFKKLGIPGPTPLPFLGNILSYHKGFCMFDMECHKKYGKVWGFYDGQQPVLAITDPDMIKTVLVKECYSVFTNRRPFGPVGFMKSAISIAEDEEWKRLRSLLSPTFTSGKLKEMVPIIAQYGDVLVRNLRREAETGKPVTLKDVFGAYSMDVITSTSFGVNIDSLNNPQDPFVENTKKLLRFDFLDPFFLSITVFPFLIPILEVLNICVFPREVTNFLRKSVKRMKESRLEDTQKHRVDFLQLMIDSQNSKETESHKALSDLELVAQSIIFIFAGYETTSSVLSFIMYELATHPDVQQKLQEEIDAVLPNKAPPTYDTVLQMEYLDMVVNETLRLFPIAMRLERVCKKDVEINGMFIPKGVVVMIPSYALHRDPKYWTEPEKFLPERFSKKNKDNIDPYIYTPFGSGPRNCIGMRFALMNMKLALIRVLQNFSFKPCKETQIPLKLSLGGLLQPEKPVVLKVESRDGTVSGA
Cytochrome P450 2C19, sequence (P33261 whole entry): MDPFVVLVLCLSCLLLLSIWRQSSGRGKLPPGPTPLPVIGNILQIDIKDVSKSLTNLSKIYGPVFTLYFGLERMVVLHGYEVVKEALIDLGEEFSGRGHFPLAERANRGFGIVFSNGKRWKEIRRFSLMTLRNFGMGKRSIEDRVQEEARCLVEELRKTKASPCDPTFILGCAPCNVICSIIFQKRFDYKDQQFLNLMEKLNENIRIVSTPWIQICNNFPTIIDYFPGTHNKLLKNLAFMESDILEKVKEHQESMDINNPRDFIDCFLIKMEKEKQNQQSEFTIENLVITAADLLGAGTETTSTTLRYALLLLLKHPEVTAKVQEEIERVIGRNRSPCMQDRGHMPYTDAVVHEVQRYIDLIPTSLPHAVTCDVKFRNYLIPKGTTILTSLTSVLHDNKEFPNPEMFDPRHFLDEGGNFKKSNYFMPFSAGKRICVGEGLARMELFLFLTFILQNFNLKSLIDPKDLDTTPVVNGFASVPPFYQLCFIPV
Cytochrome P450 2D6, sequence (P10635 whole entry): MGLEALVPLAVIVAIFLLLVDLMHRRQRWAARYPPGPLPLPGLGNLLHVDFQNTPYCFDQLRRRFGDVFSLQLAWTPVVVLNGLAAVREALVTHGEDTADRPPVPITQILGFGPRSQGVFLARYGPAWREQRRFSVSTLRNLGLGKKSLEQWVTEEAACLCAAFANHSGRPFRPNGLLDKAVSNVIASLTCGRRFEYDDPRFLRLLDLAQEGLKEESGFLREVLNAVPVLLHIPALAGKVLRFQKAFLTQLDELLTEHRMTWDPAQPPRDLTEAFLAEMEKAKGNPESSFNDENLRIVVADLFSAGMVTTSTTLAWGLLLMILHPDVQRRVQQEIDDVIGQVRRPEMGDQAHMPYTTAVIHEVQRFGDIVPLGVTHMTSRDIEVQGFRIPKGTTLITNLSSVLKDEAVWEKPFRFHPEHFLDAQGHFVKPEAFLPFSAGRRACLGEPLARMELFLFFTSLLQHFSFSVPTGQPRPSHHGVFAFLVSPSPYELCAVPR

With `Cn1c(=O)n(C)c2cc([N+](=O)[O-])c(N3CCN(S(=O)(=O)c4ccc(C(C)(C)C)cc4)CC3)cc21` the AC50 [1] was 9.33 µM (active), the IC50 [2] was 2.73 µM (active) and the IC50 [3] was 4.02 µM (active). The AC50 [4] was 3.53 µM (active) and the AC50 [5] was > 70 µM (inactive).

With `Cc1nc2nc(SCC(=O)NCCCN3CCOCC3)nn2c(C)c1Cc1ccccc1` the AC50 [6] was 5.43 µM (active).

With `C[C@H](N[C@@H](C)CCc1ccccc1)[C@H](O)c1ccc(O)cc1` the AC50 [7] was “inconclusive” and the AC50 [8] was 10 µM (inconclusive).

For `N#CCCn1c(=O)cnc2cnc(N3CCNCC3)nc21`, the AC50 [9] was “inconclusive” and the AC50 [10] was 12.6 µM (inconclusive).

For `CCOc1ccc(C(C)=O)cc1N1C(=O)C2C3C=CC(O3)C2C1=O` (configuration not stated), the AC50 [9] was “inconclusive” and the AC50 [8] was 39.8 µM (inconclusive).

For `O=S(=O)(c1cccc2nsnc12)N1CCCC1`, the AC50 [10] was 14.1 µM (inconclusive) and the AC50 [7] was “inconclusive”.

In the case of `Cc1cc(C)c2nc(N=C(N)NC(=O)Nc3ccccc3)nc(C)c2c1`, the CC50 [11] is reported as > 40 µM (active), the CC50 [12] is reported as > 20 µM (active) and the IC50 [13] is reported as 8.18 µM (active).

In the case of `CC(C)(C)n1ncc2c(=O)n(CC(=O)NCc3ccccc3Cl)cnc21`, the AC50 [9] is reported as “inconclusive” and the AC50 [14] is reported as 11.2 µM (inconclusive).

In the case of `CC1=C(CC[C@H](C)CO)O[C@@H]2C[C@@H]3[C@H]4CC[C@H]5C[C@@H](O)CC[C@]5(C)[C@@H]4CC(=O)[C@@]3(C)[C@@H]12`, the AC50 [7] is reported as “inconclusive”.

In the case of `Cc1ccc(-c2nn3c(C)nnc3s2)cc1NCc1c(F)cccc1Cl`, the IC50 [2] is reported as 3.44 µM (active) and the IC50 [3] is reported as 5.76 µM (active).

With `CC(Oc1ccc2c(-c3ccccc3)cc(=O)oc2c1)C(=O)NCc1ccccn1` (configuration not stated) the AC50 [6] was 8.99 µM (active).

For `COc1ccc2c(c1)-c1nn(CCCN(C)C)c3ccc([N+](=O)[O-])c(c13)N2`, the GI50 [15] was 0.119 µM (active), the GI50 [16] was 0.281 µM (active) and the GI50 [17] was 0.163 µM (active).

In the case of `O=c1[nH]n(-c2cccc3cccnc23)c(=O)c2ccccc12`, the AC50 [9] is reported as “inconclusive”, the AC50 [10] is reported as 6.31 µM (inconclusive) and the AC50 [18] is reported as 25.1 µM (inconclusive).

For `CC(=O)Nc1ccc(S(=O)(=O)Nc2ccc(S(=O)(=O)Nc3nccs3)cc2)cc1`, the EC50 [19] was > 350 µM (not active) and the EC50 [20] was > 350 µM (not active).

With `C(#Cc1ccccc1)C[N+]1(CC#Cc2ccccc2)CCCCC1` the IC50 [2] was < 0.25 µM (active), the IC50 [3] was < 0.25 µM (active) and the EC50 [21] was > 160 µM (inactive). For the same molecule, the EC50 [22] was > 38 µM (not active), the EC50 [23] was > 60 µM (not active) and the EC50 [24] was 1.88 µM (active).

In the case of `CCCn1nc2cc(C(=O)NC3CCCc4ccccc43)ccc2c1OCC` (configuration not stated), the AC50 [9] is reported as “inconclusive”, the AC50 [14] is reported as 25.1 µM (inconclusive) and the AC50 [18] is reported as 15.8 µM (inconclusive).

For `COc1ccc(OCCNc2cc(Cl)ccc2[N+](=O)[O-])cc1`, the EC50 [25] was > 99 µM (inactive) and the EC50 [26] was > 99 µM (inactive).
